Assay results reported in patent US6914045B2, “Glycopeptide antibiotics” (Wyeth Holdings Corporation, priority 2001, dated 2005).
Converted amounts (≈) assume the structure as drawn.

Columns and labels:
Experiment in all cases: in vitro antibacterial evaluation, MIC by broth dilution
Format in all cases: cell-based
Streptococcus sp. = details: broth dilution, 18 hours at 35° C.; for MIC Streptococcus pneumoniae (ATCC 6301): strain ATCC 6301; for MIC Streptococcus pneumoniae (GC 1894): strain GC 1894; for MIC Streptococcus pyogenes (GC 4563): strain GC 4563; for MIC Streptococcus agalactiae (GC 4564): strain GC 4564; for MIC Streptococcus pneumoniae (GC 4565): strain GC 4565
Protocol: (§1) Methods for in vitro Antibacterial Evaluation (Table 1)
(§2) The minimum inhibitory concentration (MIC), the lowest concentration of the antibiotic which inhibits growth of the test organism, is determined by the broth dilution method using Muller-Hinton II […] (Baltimore Biological Laboratories) following the recommendations of the National Committee for Clinical Laboratory Standards [Methods for dilution antimicrobial susceptibility tests for bacteria that grow aerobically, approved standard M7-A2, National Committee for Clinical Laboratory Standards, Villanova, Pa.].
(§3) An inoculum level of 5×10^5 CFU/mL, and a range of antibiotic concentrations (64-0.06 μg/mL) is used. […] The test organisms include a spectrum of Gram-positive bacteria comprised of Staphylococcus sp., Streptococcus sp. and Enterococcus sp. These organisms include recent clinical isolates that are resistant to methicillin, penicillin and/or vancomycin.

Enterococcus sp. = details: broth dilution, 18 hours at 35° C.; for MIC Enterococcus faecalis (ATCC 29212): strain ATCC 29212; for MIC Enterococcus faecalis (GC 2242): strain GC 2242; for MIC Enterococcus faecium (GC 2243): strain GC 2243; for MIC Enterococcus faecalis (GC 2691): strain GC 2691; for MIC Enterococcus faecalis (GC 3059): strain GC 3059; for MIC Enterococcus faecalis (GC 4552): strain GC 4552; for MIC Enterococcus faecalis (GC 4553): strain GC 4553; for MIC Enterococcus faecalis (GC 4554): strain GC 4554; for MIC Enterococcus faecium (GC 4556): strain GC 4556; for MIC Enterococcus faecium (GC 4557): strain GC 4557; for MIC Enterococcus avium (GC 4558): strain GC 4558; for MIC Enterococcus faecalis (GC 6189): strain GC 6189
Protocol: as §1, §2, §3

Staphylococcus sp. = details: broth dilution, 18 hours at 35° C.; for MIC Staphylococcus aureus (ATCC 29213): strain ATCC 29213; for MIC Staphylococcus aureus (GC 1131): strain GC 1131; for MIC Staphylococcus aureus (GC 3051): strain GC 3051; for MIC Staphylococcus aureus (GC 3053): strain GC 3053; for MIC Staphylococcus aureus (GC 4541): strain GC 4541; for MIC Staphylococcus aureus (GC 4542): strain GC 4542; for MIC Staphylococcus aureus-SMITH (GC 4543): strain GC 4543; for MIC Staphylococcus aureus (GC 4544): strain GC 4544; for MIC Staphylococcus aureus (GC 4545): strain GC 4545; for MIC Staphylococcus haemolyticus (GC 4546): strain GC 4546; for MIC Coagulase Negative Staphylococcus (GC 4547): strain GC 4547; for MIC Coagulase Negative Staphylococcus (GC 4548): strain GC 4548; for MIC Coagulase Negative Staphylococcus (GC 4549): strain GC 4549; for MIC Coagulase Negative Staphylococcus (GC 4551): strain GC 4551; for MIC Coagulase Negative Staphylococcus (GC 6257): strain GC 6257
Protocol: as §1, §2, §3

Escherichia coli = details: broth dilution, 18 hours at 35° C.; for MIC Escherichia coli (ATCC 25922): strain ATCC 25922; for MIC Escherichia coli (GC 4559): strain GC 4559; for MIC Escherichia coli (GC 4560): strain GC 4560
In short: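 MIC is the lowest antibiotic concentration (tested 64-0.06 μg/mL) preventing growth of a 5×10^5 CFU/mL inoculum. Determined by broth dilution in Mueller-Hinton II medium following NCCLS standard M7-A2.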

MIC Streptococcus pneumoniae (ATCC 6301) (Streptococcus sp.) [µg/mL] | MIC Streptococcus pneumoniae (GC 1894) (Streptococcus sp.) [µg/mL] | MIC Streptococcus pyogenes (GC 4563) (Streptococcus sp.) [µg/mL] | MIC Streptococcus agalactiae (GC 4564) (Streptococcus sp.) [µg/mL] | MIC Streptococcus pneumoniae (GC 4565) (Streptococcus sp.) [µg/mL] | MIC Enterococcus faecalis (ATCC 29212) (Enterococcus sp.) [µg/mL] | MIC Enterococcus faecalis (GC 2242) (Enterococcus sp.) [µg/mL] | MIC Enterococcus faecium (GC 2243) (Enterococcus sp.) [µg/mL] | MIC Enterococcus faecalis (GC 2691) (Enterococcus sp.) [µg/mL] | MIC Enterococcus faecalis (GC 3059) (Enterococcus sp.) [µg/mL] | MIC Enterococcus faecalis (GC 4552) (Enterococcus sp.) [µg/mL] | MIC Enterococcus faecalis (GC 4553) (Enterococcus sp.) [µg/mL] | MIC Enterococcus faecalis (GC 4554) (Enterococcus sp.) [µg/mL] | MIC Enterococcus faecium (GC 4556) (Enterococcus sp.) [µg/mL] | MIC Enterococcus faecium (GC 4557) (Enterococcus sp.) [µg/mL] | MIC Enterococcus avium (GC 4558) (Enterococcus sp.) [µg/mL] | MIC Enterococcus faecalis (GC 6189) (Enterococcus sp.) [µg/mL] | MIC Staphylococcus aureus (ATCC 29213) (Staphylococcus sp.) [µg/mL] | MIC Staphylococcus aureus (GC 1131) (Staphylococcus sp.) [µg/mL] | MIC Staphylococcus aureus (GC 3051) (Staphylococcus sp.) [µg/mL] | SMILES | further results
>64 | 64 (≈ 58.7 µM) | >64 | >64 | >64 | >64 | >64 | >64 | >64 | >64 | >64 | >64 | >64 | 64 (≈ 58.7 µM) | 64 (≈ 58.7 µM) | 64 (≈ 58.7 µM) | >64 | >64 | >64 | >64 | CC(c1ccccc1)C1NC(=O)CNC(=O)C(CO)NC(=O)C(C(O)C2CNC(=N)N2C2OC(CO)C(O)C(O)C2O)NC(=O)C(C(O)C2CNC(=N)N2)NC(=O)C(Cc2ccc(O)c(NC(=O)c3ccccc3)c2)NC1=O (stereo not drawn) [Example 17, Cyclo[glycyl-β-methylphenylalanyl-3-(benzamido)tyrosyl-3-(2-iminoimidazolidin-4-yl)seryl-3-(3-hexopyranosyl-2-iminoimidazolidin-4-yl)serylseryl]] | MIC Staphylococcus aureus (GC 3053) (Staphylococcus sp.): >64 µg/mL; MIC Staphylococcus aureus (GC 4541) (Staphylococcus sp.): >64 µg/mL; MIC Staphylococcus aureus (GC 4542) (Staphylococcus sp.): >64 µg/mL; MIC Staphylococcus aureus-SMITH (GC 4543) (Staphylococcus sp.): >64 µg/mL; MIC Staphylococcus aureus (GC 4544) (Staphylococcus sp.): >64 µg/mL; MIC Staphylococcus aureus (GC 4545) (Staphylococcus sp.): >64 µg/mL; MIC Staphylococcus haemolyticus (GC 4546) (Staphylococcus sp.): >64 µg/mL; MIC Coagulase Negative Staphylococcus (GC 4547) (Staphylococcus sp.): 64 µg/mL (≈ 58.7 µM); MIC Coagulase Negative Staphylococcus (GC 4548) (Staphylococcus sp.): >64 µg/mL; MIC Coagulase Negative Staphylococcus (GC 4549) (Staphylococcus sp.): 32 µg/mL (≈ 29.4 µM); MIC Coagulase Negative Staphylococcus (GC 4551) (Staphylococcus sp.): >64 µg/mL; MIC Coagulase Negative Staphylococcus (GC 6257) (Staphylococcus sp.): 64 µg/mL (≈ 58.7 µM); MIC Escherichia coli (ATCC 25922) (Escherichia coli): 64 µg/mL (≈ 58.7 µM); MIC Escherichia coli (GC 4559) (Escherichia coli): 32 µg/mL (≈ 29.4 µM); MIC Escherichia coli (GC 4560) (Escherichia coli): 16 µg/mL (≈ 14.7 µM)
128 (≈ 126 µM) | 64 (≈ 63.1 µM) | 128 (≈ 126 µM) | 128 (≈ 126 µM) | 128 (≈ 126 µM) | >128 | >128 | >128 | >128 | >128 | >128 | 128 (≈ 126 µM) | >128 | >128 | 64 (≈ 63.1 µM) | 128 (≈ 126 µM) | >128 | >128 | >128 | >128 | CC(c1ccccc1)C1NC(=O)CNC(=O)C(CO)NC(=O)C(C(O)C2CNC(=N)N2C2OC(CO)C(O)C(O)C2O)NC(=O)C(C(O)C2CNC(=N)N2)NC(=O)C(Cc2ccc(O)c(NC=O)c2)NC1=O (stereo not drawn) [Example 18, Cyclo[glycyl-β-methylphenylalanyl-3-formamidotyrosyl-3-(2-iminoimidazolidin-4-yl)seryl-3-(3-hexopyranosyl-2-iminoimidazolidin-4-yl)serylseryl]] | MIC Staphylococcus aureus (GC 3053) (Staphylococcus sp.): >128 µg/mL; MIC Staphylococcus aureus (GC 4541) (Staphylococcus sp.): >128 µg/mL; MIC Staphylococcus aureus (GC 4542) (Staphylococcus sp.): >128 µg/mL; MIC Staphylococcus aureus-SMITH (GC 4543) (Staphylococcus sp.): >128 µg/mL; MIC Staphylococcus aureus (GC 4544) (Staphylococcus sp.): >128 µg/mL; MIC Staphylococcus aureus (GC 4545) (Staphylococcus sp.): >128 µg/mL; MIC Staphylococcus haemolyticus (GC 4546) (Staphylococcus sp.): 128 µg/mL (≈ 126 µM); MIC Coagulase Negative Staphylococcus (GC 4547) (Staphylococcus sp.): 128 µg/mL (≈ 126 µM); MIC Coagulase Negative Staphylococcus (GC 4548) (Staphylococcus sp.): 128 µg/mL (≈ 126 µM); MIC Coagulase Negative Staphylococcus (GC 4549) (Staphylococcus sp.): 64 µg/mL (≈ 63.1 µM); MIC Coagulase Negative Staphylococcus (GC 4551) (Staphylococcus sp.): >128 µg/mL; MIC Coagulase Negative Staphylococcus (GC 6257) (Staphylococcus sp.): 128 µg/mL (≈ 126 µM); MIC Escherichia coli (ATCC 25922) (Escherichia coli): 64 µg/mL (≈ 63.1 µM); MIC Escherichia coli (GC 4559) (Escherichia coli): 32 µg/mL (≈ 31.6 µM); MIC Escherichia coli (GC 4560) (Escherichia coli): 16 µg/mL (≈ 15.8 µM)
128 (≈ 114 µM) | 64 (≈ 57.1 µM) | >128 | >128 | 128 (≈ 114 µM) | >128 | >128 | >128 | >128 | >128 | >128 | 128 (≈ 114 µM) | >128 | >128 | 128 (≈ 114 µM) | 128 (≈ 114 µM) | >128 | >128 | >128 | >128 | Cc1ccc(OC(=O)Nc2cc(CC3NC(=O)C(C(C)c4ccccc4)NC(=O)CNC(=O)C(CO)NC(=O)C(C(O)C4CNC(=N)N4C4OC(CO)C(O)C(O)C4O)NC(=O)C(C(O)C4CNC(=N)N4)NC3=O)ccc2O)cc1 (stereo not drawn) [Example 19, Cyclo[glycyl-β-methylphenylalanyl-3-[[(4-methylphenoxy)carbonyl]amino]tyrosyl-3-(2-iminoimidazolidin-4-yl)seryl-3-(3-hexopyranosyl-2-iminoimidazolidin-4-yl)serylseryl]] | MIC Staphylococcus aureus (GC 3053) (Staphylococcus sp.): >128 µg/mL; MIC Staphylococcus aureus (GC 4541) (Staphylococcus sp.): >128 µg/mL; MIC Staphylococcus aureus (GC 4542) (Staphylococcus sp.): >128 µg/mL; MIC Staphylococcus aureus-SMITH (GC 4543) (Staphylococcus sp.): >128 µg/mL; MIC Staphylococcus aureus (GC 4544) (Staphylococcus sp.): >128 µg/mL; MIC Staphylococcus aureus (GC 4545) (Staphylococcus sp.): >128 µg/mL; MIC Staphylococcus haemolyticus (GC 4546) (Staphylococcus sp.): >128 µg/mL; MIC Coagulase Negative Staphylococcus (GC 4547) (Staphylococcus sp.): >128 µg/mL; MIC Coagulase Negative Staphylococcus (GC 4548) (Staphylococcus sp.): >128 µg/mL; MIC Coagulase Negative Staphylococcus (GC 4549) (Staphylococcus sp.): 128 µg/mL (≈ 114 µM); MIC Coagulase Negative Staphylococcus (GC 4551) (Staphylococcus sp.): >128 µg/mL; MIC Coagulase Negative Staphylococcus (GC 6257) (Staphylococcus sp.): >128 µg/mL; MIC Escherichia coli (ATCC 25922) (Escherichia coli): 128 µg/mL (≈ 114 µM); MIC Escherichia coli (GC 4559) (Escherichia coli): 128 µg/mL (≈ 114 µM); MIC Escherichia coli (GC 4560) (Escherichia coli): 128 µg/mL (≈ 114 µM)
